PubChem BioAssay (NCI)
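Following 48 hours of exposure in 96-well plates, responses at five concentrations were used to interpolate endpoints linearly. TGI: total growth inhibition.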

Legend:
Assay in all cases: NCI anticancer screen, dose series, 48 h
[1] = tested on: OVCAR-4 ovarian
[2] = tested on: HOP-62 NSCLC
[3] = tested on: 786-0 renal
[4] = tested on: SNB-19 CNS
[5] = tested on: RXF 393 renal
[6] = tested on: OVCAR-5 ovarian
[7] = tested on: HCT-15 colon
[8] = tested on: SF-539 CNS
[9] = tested on: HOP-18 NSCLC
[10] = tested on: LOX IMVI melanoma
[11] = tested on: MALME-3M melanoma
[12] = tested on: M14 melanoma
[13] = tested on: SF-295 CNS
[14] = tested on: SK-MEL-28 melanoma
[15] = tested on: LXFL 529 NSCLC
[16] = tested on: NCI-H460 lung
[17] = tested on: SK-OV-3 ovarian
[18] = tested on: NCI-H522 lung
[19] = tested on: HL-60(TB) leukemia
[20] = tested on: ACHN renal
[21] = tested on: HOP-92 NSCLC
[22] = tested on: MOLT-4 leukemia
[23] = tested on: IGROV1 ovarian
[24] = tested on: UACC-257 melanoma
[25] = tested on: CAKI-1 renal
[26] = tested on: M19-MEL melanoma
[27] = tested on: XF 498 CNS
[28] = tested on: DLD-1 colon
[29] = tested on: SF-268 CNS
[30] = tested on: EKVX NSCLC
[31] = tested on: KM20L2 colon
[32] = tested on: NCI-H226 lung
[33] = tested on: UACC-62 melanoma
[34] = tested on: NCI-H23 lung
[35] = tested on: COLO 205 colon
[36] = tested on: A549 NSCLC
[37] = tested on: UO-31 renal
[38] = tested on: CCRF-CEM leukemia
[39] = tested on: HCT-116 colon
[40] = tested on: U251 CNS
[41] = tested on: OVCAR-3 ovarian
[42] = tested on: K-562 leukemia
[43] = tested on: KM12 colon
[44] = tested on: SNB-75 CNS
[45] = tested on: DMS 273 small cell lung
[46] = tested on: SK-MEL-2 melanoma
[47] = tested on: TK-10 renal
[48] = tested on: OVCAR-8 ovarian
[49] = tested on: A498 renal
[50] = tested on: SK-MEL-5 melanoma
[51] = tested on: SN12C renal
[52] = tested on: SW-620 colon
[53] = tested on: HCC-2998 colon
[54] = tested on: HT29 colon
[55] = tested on: SNB-78 CNS
[56] = tested on: SR leukemia
[57] = tested on: DMS 114 small cell lung
[58] = tested on: RPMI-8226 leukemia

For Cc1c(C(=O)O)n(C)c(=O)n(C)c1=O, the TGI [1] was greater than 100 µM, the TGI [2] was greater than 100 µM and the TGI [3] was greater than 100 µM. The TGI [4] was greater than 100 µM, the TGI [5] was greater than 100 µM and the TGI [6] was greater than 100 µM. For the same molecule, the TGI [7] was greater than 100 µM, the TGI [8] was greater than 100 µM and the TGI [9] was greater than 100 µM. It also gave a TGI [10] greater than 100 µM, a TGI [11] greater than 100 µM and a TGI [12] greater than 100 µM. It also gave a TGI [13] greater than 100 µM, a TGI [14] greater than 100 µM and a TGI [15] greater than 100 µM. It also gave a TGI [16] greater than 100 µM, a TGI [17] greater than 100 µM and a TGI [18] greater than 100 µM. The TGI [19] was greater than 100 µM, the TGI [20] was greater than 100 µM and the TGI [21] was greater than 100 µM. It also gave a TGI [22] greater than 100 µM, a TGI [23] greater than 100 µM and a TGI [24] greater than 100 µM. For the same molecule, the TGI [25] was greater than 100 µM, the TGI [26] was greater than 100 µM and the TGI [27] was greater than 100 µM. For the same molecule, the TGI [28] was greater than 100 µM, the TGI [29] was greater than 100 µM and the TGI [30] was greater than 100 µM. The TGI [31] was greater than 100 µM, the TGI [32] was greater than 100 µM and the TGI [33] was greater than 100 µM. It also gave a TGI [34] greater than 100 µM, a TGI [35] greater than 100 µM and a TGI [36] greater than 100 µM. For the same molecule, the TGI [37] was greater than 100 µM, the TGI [38] was greater than 100 µM and the TGI [39] was greater than 100 µM. The TGI [40] was greater than 100 µM, the TGI [41] was greater than 100 µM and the TGI [42] was greater than 100 µM. For the same molecule, the TGI [43] was greater than 100 µM, the TGI [44] was greater than 100 µM and the TGI [45] was greater than 100 µM. The TGI [46] was greater than 100 µM, the TGI [47] was greater than 100 µM and the TGI [48] was greater than 100 µM. It also gave a TGI [49] greater than 100 µM, a TGI [50] greater than 100 µM and a TGI [51] greater than 100 µM. The TGI [52] was greater than 100 µM, the TGI [53] was greater than 100 µM and the TGI [54] was greater than 100 µM.
Molecule COc1ccccc1NC(=O)C1=C(C)NC(C)=C(C(=O)Nc2ccccc2OC)C1/C=C/c1ccccc1 has a TGI [1] greater than 100 µM, a TGI [2] greater than 100 µM and a TGI [3] greater than 100 µM. It also gave a TGI [4] greater than 100 µM, a TGI [6] greater than 100 µM and a TGI [7] greater than 100 µM. For the same molecule, the TGI [55] was greater than 100 µM, the TGI [8] was greater than 100 µM and the TGI [9] was greater than 100 µM. It also gave a TGI [10] greater than 100 µM, a TGI [11] greater than 100 µM and a TGI [56] greater than 100 µM. It also gave a TGI [12] greater than 100 µM, a TGI [13] greater than 100 µM and a TGI [14] greater than 100 µM. The TGI [15] was greater than 100 µM, the TGI [16] was greater than 100 µM and the TGI [17] was greater than 100 µM. It also gave a TGI [19] greater than 100 µM, a TGI [20] greater than 100 µM and a TGI [21] greater than 100 µM. The TGI [22] was greater than 100 µM, the TGI [23] was greater than 100 µM and the TGI [24] was greater than 100 µM. It also gave a TGI [25] greater than 100 µM, a TGI [26] greater than 100 µM and a TGI [28] greater than 100 µM. For the same molecule, the TGI [29] was greater than 100 µM, the TGI [30] was greater than 100 µM and the TGI [31] was greater than 100 µM. For the same molecule, the TGI [32] was greater than 100 µM, the TGI [33] was greater than 100 µM and the TGI [34] was greater than 100 µM. For the same molecule, the TGI [35] was greater than 100 µM, the TGI [36] was greater than 100 µM and the TGI [57] was greater than 100 µM. The TGI [37] was greater than 100 µM, the TGI [38] was greater than 100 µM and the TGI [39] was greater than 100 µM. For the same molecule, the TGI [40] was greater than 100 µM, the TGI [41] was greater than 100 µM and the TGI [42] was greater than 100 µM. The TGI [43] was greater than 100 µM, the TGI [44] was 79.7 µM and the TGI [45] was greater than 100 µM. For the same molecule, the TGI [58] was greater than 100 µM, the TGI [46] was greater than 100 µM and the TGI [47] was greater than 100 µM. For the same molecule, the TGI [48] was greater than 100 µM, the TGI [49] was greater than 100 µM and the TGI [50] was greater than 100 µM. It also gave a TGI [51] greater than 100 µM, a TGI [52] greater than 100 µM and a TGI [53] greater than 100 µM. The TGI [54] was greater than 100 µM.
Molecule COC1=CC(C2c3cc4c(cc3[C@@H](Nc3ccc(F)cc3)C3COC(=O)[C@H]23)OCO4)=CC(=O)C1=O (stereo not given in full) has a TGI [1] greater than 61.2 µM, a TGI [2] of 5.9 µM and a TGI [3] of 11.4 µM. The TGI [4] was greater than 66.5 µM, the TGI [5] was greater than 100 µM and the TGI [6] was 98.2 µM. The TGI [7] was 26.9 µM, the TGI [55] was greater than 96.4 µM and the TGI [8] was 20.3 µM. The TGI [10] was 35.6 µM, the TGI [11] was 36.6 µM and the TGI [56] was greater than 23.6 µM. The TGI [12] was 36.3 µM, the TGI [13] was 11.8 µM and the TGI [14] was 45.8 µM. It also gave a TGI [15] of 16.3 µM, a TGI [16] of 14.9 µM and a TGI [17] of 23.1 µM. The TGI [18] was 14.9 µM, the TGI [19] was greater than 21.4 µM and the TGI [20] was 23.4 µM. For the same molecule, the TGI [21] was 31.7 µM, the TGI [22] was 14.5 µM and the TGI [23] was 44 µM. It also gave a TGI [24] greater than 63.9 µM, a TGI [25] of 31.9 µM and a TGI [26] of 55.7 µM. It also gave a TGI [27] of 27.9 µM, a TGI [28] greater than 100 µM and a TGI [29] of 36.6 µM. It also gave a TGI [30] greater than 59.1 µM, a TGI [31] greater than 74.6 µM and a TGI [32] of 39.3 µM. The TGI [33] was 20.7 µM, the TGI [34] was 9.97 µM and the TGI [35] was 41.5 µM. The TGI [36] was 20.4 µM, the TGI [37] was 30.2 µM and the TGI [38] was greater than 29 µM. The TGI [39] was 30.5 µM, the TGI [40] was 13.7 µM and the TGI [41] was greater than 66.5 µM. The TGI [42] was greater than 49.2 µM, the TGI [43] was 34.5 µM and the TGI [44] was greater than 45.1 µM. It also gave a TGI [45] of 16.3 µM, a TGI [58] greater than 100 µM and a TGI [47] greater than 63 µM. The TGI [48] was greater than 51.4 µM, the TGI [49] was 16 µM and the TGI [50] was greater than 43.5 µM. It also gave a TGI [51] of 24.8 µM, a TGI [52] greater than 50.1 µM and a TGI [53] of 39.6 µM. For the same molecule, the TGI [54] was greater than 68.3 µM.
With CCC(=O)OC1CCn2c1nc1c2C(=O)C(C)=C(NC(C)=O)C1=N (stereo not given) the TGI [1] was 2.66 µM, the TGI [2] was 3.47 µM and the TGI [3] was 6.06 µM. It also gave a TGI [4] of 16.8 µM, a TGI [6] of 3.47 µM and a TGI [7] of 6.27 µM. For the same molecule, the TGI [55] was 6.05 µM, the TGI [8] was 3.21 µM and the TGI [9] was 3.26 µM. For the same molecule, the TGI [10] was 3 µM, the TGI [11] was 2.74 µM and the TGI [56] was greater than 100 µM. It also gave a TGI [13] of 4.12 µM, a TGI [14] of 3.5 µM and a TGI [16] of 3 µM. It also gave a TGI [17] of 6.82 µM, a TGI [18] of 2.79 µM and a TGI [20] of 3.95 µM. The TGI [21] was 5.15 µM, the TGI [23] was 5.54 µM and the TGI [24] was 2.5 µM. For the same molecule, the TGI [25] was 1.94 µM, the TGI [26] was 0.365 µM and the TGI [27] was 4.31 µM. For the same molecule, the TGI [28] was 3.19 µM, the TGI [29] was 4.94 µM and the TGI [30] was 5.48 µM. It also gave a TGI [31] of 3.38 µM, a TGI [32] of 4.63 µM and a TGI [33] of 2.71 µM. It also gave a TGI [34] of 3.23 µM, a TGI [35] of 3.18 µM and a TGI [36] of 10.2 µM. It also gave a TGI [57] of 3.53 µM, a TGI [37] of 4.64 µM and a TGI [39] of 2.39 µM. It also gave a TGI [40] of 17.2 µM, a TGI [41] of 3.31 µM and a TGI [42] greater than 100 µM. For the same molecule, the TGI [43] was 5.37 µM, the TGI [44] was 4.45 µM and the TGI [45] was 3.11 µM. The TGI [46] was 3.43 µM, the TGI [47] was 12.8 µM and the TGI [48] was 2.89 µM. For the same molecule, the TGI [49] was 4.21 µM, the TGI [50] was 2.55 µM and the TGI [51] was 3.02 µM. The TGI [52] was 2.44 µM, the TGI [53] was 13 µM and the TGI [54] was 3.36 µM.
